Where a name gives a salt, the structure may show the parent alone.
Tested on: HCT116
Conditions: 72 h
Method in brief: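 HCT116 cells were seeded at 250 per well in 1536-well plates with 5 h allowed for attachment. CellTiter-Glo luminescence was normalized against vehicle (0%) and positive control (-100%) before pattern correction. The IC50 and maximal efficacy figures derive from four-parameter Hill fits.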

SMILES	IC50 cell viability (ICRF193 0 nM)	IC50 cell viability (ICRF193 200 nM)
CN1C(CSCC(F)(F)F)Nc2cc(Cl)c(S(N)(=O)=O)cc2S1(=O)=O (stereo not given) [Polythiazide]	> 45.8 µM	> 45.8 µM
Nc1cccc2c1C(=O)N(C1CCC(=O)NC1=O)C2=O (stereo not given) [Pomalidomide]	> 45.8 µM	> 45.8 µM
CC[C@@H]([C@H](C)O)n1ncn(-c2ccc(N3CCN(c4ccc(OC[C@@H]5CO[C@@](Cn6cncn6)(c6ccc(F)cc6F)C5)cc4)CC3)cc2)c1=O [Posaconazole]	> 45.8 µM	> 45.8 µM
CCCCCC[C@@H](O)C/C=C\CCCCCCCC(=O)O [Potassium ricinoleate]	> 45.8 µM	> 45.8 µM
C[n+]1ccccc1/C=N/O [Pralidoxime chloride]	> 45.8 µM	> 45.8 µM
CCCN[C@H]1CCc2nc(N)sc2C1 [Pramipexole hydrochloride]	> 45.8 µM	> 45.8 µM
CCCCOc1ccc(OCCCN2CCOCC2)cc1 [Pramoxine hydrochloride]	> 45.8 µM	> 45.8 µM
O=C(N[C@H]1N=C(c2ccccc2F)c2cccc3c2N(CC3)C1=O)c1cc2ccccc2[nH]1 [Pranazepide]	> 45.8 µM	> 45.8 µM
O=C(Nc1cccc2c(=O)cc(-c3nnn[nH]3)oc12)c1ccc(OCCCCc2ccccc2)cc1 [Pranlukast hydrate]	> 45.8 µM	> 45.8 µM
CC(C(=O)O)c1ccc2c(c1)Cc1cccnc1O2 (stereo not given) [Pranoprofen]	> 45.8 µM	> 45.8 µM
CC(=O)Oc1cc2c(s1)CCN(C(C(=O)C1CC1)c1ccccc1F)C2 (stereo not given) [Prasugrel]	> 45.8 µM	> 45.8 µM
CC[C@H](C)C(=O)O[C@H]1C[C@H](O)C=C2C=C[C@H](C)[C@H](CC[C@@H](O)C[C@@H](O)CC(=O)O)[C@H]21 [Pravastatin]	> 45.8 µM	> 45.8 µM
O=C(C1CCCCC1)N1CC(=O)N2CCc3ccccc3C2C1 (stereo not given) [Praziquantel]	> 45.8 µM	> 45.8 µM
C[C@]12C=CC(=O)C=C1CC[C@@H]1[C@@H]2[C@@H](O)C[C@@]2(C)[C@H]1CC[C@]2(O)C(=O)COP(=O)(O)O [Prednisolone Phosphate (sodium salt)]	> 45.8 µM	> 45.8 µM
CC(=O)OCC(=O)[C@@]1(O)CC[C@H]2[C@@H]3CCC4=CC(=O)C=C[C@]4(C)[C@H]3[C@@H](O)C[C@@]21C [Prednisolone acetate]	> 45.8 µM	> 45.8 µM
CC(C)=CCC/C(C)=C/CC/C(C)=C/C(=O)OCC(=O)[C@@]1(O)CC[C@H]2[C@@H]3CCC4=CC(=O)C=C[C@]4(C)[C@H]3[C@@H](O)C[C@@]21C [Prednisolone farnesylate]	> 45.8 µM	> 45.8 µM
C[C@]12C=CC(=O)C=C1CC[C@@H]1[C@@H]2[C@@H](O)C[C@@]2(C)[C@H]1CC[C@]2(O)C(=O)CO [Prednisolone]	> 45.8 µM	> 45.8 µM
C[C@]12C=CC(=O)C=C1CC[C@@H]1[C@@H]2C(=O)C[C@@]2(C)[C@H]1CC[C@]2(O)C(=O)CO [Prednisone]	> 45.8 µM	> 45.8 µM
C[C@]12C=CC(=O)C=C1CC[C@@H]1[C@@H]2[C@@H](O)C[C@@]2(C)[C@H]1CC[C@]2(O)C(=O)COC(=O)c1cccc(S(=O)(=O)O)c1 [Predocol]	> 45.8 µM	> 45.8 µM
C[C@H](O)[C@H]1CC[C@H]2[C@@H]3CC[C@@H]4C[C@H](O)CC[C@]4(C)[C@H]3CC[C@]12C [Pregnandiol]	> 45.8 µM	> 45.8 µM
CC(=O)O[C@H]1CC[C@@]2(C)C(=CC[C@H]3[C@@H]4CC[C@H](C(C)=O)[C@@]4(C)CC[C@@H]32)C1 [Pregnenolone acetate]	> 45.8 µM	> 45.8 µM
CC(=O)[C@H]1CC[C@H]2[C@@H]3CC=C4C[C@@H](O)CC[C@]4(C)[C@H]3CC[C@]12C [Pregnenolone]	> 45.8 µM	> 45.8 µM

SMILES	IC50 cell viability (ICRF193 0 nM)	IC50 cell viability (ICRF193 200 nM)
OC(CCN1CCCCC1)(c1ccccc1)c1ccccc1 [Pridinol]	> 45.8 µM	> 45.8 µM
CC[N+]1(CC)CCC(=C(c2ccccc2)c2ccccc2)C1C (stereo not given) [Prifinium bromide]	> 45.8 µM	> 45.8 µM
CCCNC(C)C(=O)Nc1ccccc1C (stereo not given) [Prilocaine hydrochloride]	> 45.8 µM	> 45.8 µM
CCC1(c2ccccc2)C(=O)NCNC1=O [Primidone]	> 45.8 µM	> 45.8 µM
CCCN(CCC)S(=O)(=O)c1ccc(C(=O)O)cc1 [Probenecid]	> 45.8 µM	> 45.8 µM
CC(C)(Sc1cc(C(C)(C)C)c(O)c(C(C)(C)C)c1)Sc1cc(C(C)(C)C)c(O)c(C(C)(C)C)c1 [Probucol]	> 45.8 µM	> 45.8 µM
CCN(CC)CCNC(=O)c1ccc(N)cc1 [Procainamide]	> 45.8 µM	> 45.8 µM
CNNCc1ccc(C(=O)NC(C)C)cc1 [Procarbazine hydrochloride]	> 45.8 µM	> 45.8 µM
CCC(NC(C)C)C(O)c1ccc(O)c2[nH]c(=O)ccc12 (stereo not given) [Procaterol]	> 45.8 µM	> 45.8 µM
OC(CCN1CCCC1)(c1ccccc1)C1CCCCC1 (stereo not given) [Procyclidine hydrochloride]	> 45.8 µM	> 45.8 µM
CCCN(CCC)C(=O)C(CCC(=O)O)NC(=O)c1ccccc1 (stereo not given) [Proglumide]	> 45.8 µM	> 45.8 µM
CC(C)NC(=N)NC(=N)Nc1ccc(Cl)cc1 [Proguanil hydrochloride]	> 45.8 µM	> 45.8 µM
CCCNCC(O)COc1ccccc1C(=O)CCc1ccccc1 (stereo not given) [Propafenone hydrochloride]	> 45.8 µM	> 45.8 µM
N=C(N)c1ccc(OCCCOc2ccc(C(=N)N)cc2)cc1 [Propamidine]	> 45.8 µM	> 45.8 µM
CC(C)[N+](C)(CCOC(=O)C1c2ccccc2Oc2ccccc21)C(C)C [Propantheline bromide]	> 45.8 µM	> 45.8 µM
CCCOc1ccc(C(=O)OCCN(CC)CC)cc1N [Proparacaine]	> 45.8 µM	> 45.8 µM
CCCn1cnc2c1c(=O)n(CCCCC(C)=O)c(=O)n2C [Propentofylline]	> 45.8 µM	> 45.8 µM
CCC(Oc1ccccc1)C(=O)N[C@@H]1C(=O)N2[C@@H]1SC(C)(C)[C@@H]2C(=O)O (stereo not given in full) [Propicillin]	> 45.8 µM	> 45.8 µM
CC(C)c1cccc(C(C)C)c1O [Propofol]	> 45.8 µM	> 45.8 µM
CCCOC(=O)c1ccccc1 [Propyl benzoate]	> 45.8 µM	> 45.8 µM
CCCOC(=O)c1ccc(O)cc1 [Propyl-4-hydroxybenzoate]	> 45.8 µM	> 45.8 µM
CNC(C)CC1CCCCC1 (stereo not given) [Propylhexedrine (hydrochloride)]	> 45.8 µM	> 45.8 µM

SMILES	IC50 cell viability (ICRF193 0 nM)	IC50 cell viability (ICRF193 200 nM)
CCCc1cc(=O)[nH]c(=S)[nH]1 [Propylthiouracil]	> 45.8 µM	> 45.8 µM
Cc1c(C(C)C)c(=O)n(-c2ccccc2)n1C [Propyphenazone]	> 45.8 µM	> 45.8 µM
CCCc1cc(C(N)=S)ccn1 [Protionamide]	> 45.8 µM	> 45.8 µM
CCC(c1ccccc1)c1noc(CCN(CC)CC)n1 (stereo not given) [Proxazole citrate]	> 45.8 µM	> 45.8 µM
CC(O)Cn1cnc2c1c(=O)n(C)c(=O)n2C (stereo not given) [Proxyphylline]	> 45.8 µM	> 45.8 µM
COCCCN1CCC(NC(=O)c2cc(Cl)c(N)c3c2OCC3)CC1 [Prucalopride]	> 45.8 µM	> 45.8 µM
Cc1oc(=O)oc1CN1CCN(c2cc3c(cc2F)c(=O)c(C(=O)O)c2n3C(C)S2)CC1 (stereo not given) [Prulifloxacin]	> 45.8 µM	> 45.8 µM
CN1CCCN=C1/C=C/c1cccs1 [Pyrantel tartrate]	> 45.8 µM	> 45.8 µM
NC(=O)c1cnccn1 [Pyrazinamide]	> 45.8 µM	> 45.8 µM
C=CC=CCC1=C(C)C(OC(=O)C2C(C=C(C)C)C2(C)C)CC1=O (stereo not given) [Pyrethrin 1]	> 45.8 µM	> 45.8 µM
CNC(=O)OCc1cccc(COC(=O)NC)n1 [Pyricarbate]	> 45.8 µM	> 45.8 µM
CN(C)C(=O)Oc1ccc[n+](C)c1 [Pyridostigmine bromide]	> 45.8 µM	> 45.8 µM
Cc1ncc(COP(=O)(O)O)c(C=O)c1O [Pyridoxal phosphate hydrate]	> 45.8 µM	> 45.8 µM
Cc1ncc(COP(=O)(O)O)c(CN)c1O [Pyridoxamine phosphate]	> 45.8 µM	> 45.8 µM
Cc1ncc(CO)c(CO)c1O [Pyridoxine]	> 45.8 µM	> 45.8 µM
COc1ccc(CN(CCN(C)C)c2ccccn2)cc1 [Pyrilamine]	> 45.8 µM	> 45.8 µM
CC(COc1ccc(Oc2ccccc2)cc1)Oc1ccccn1 (stereo not given) [Pyriproxyfen]	> 45.8 µM	> 45.8 µM
Cc1ncc(CSSCc2cnc(C)c(O)c2CO)c(CO)c1O [Pyrithioxin dihydrochloride]	> 45.8 µM	> 45.8 µM
O=P(O)(O)OP(=O)(O)O [Pyrophosphoric acid]	> 45.8 µM	> 45.8 µM
C=C[C@H]1CN2CC[C@H]1C[C@H]2[C@H](OC(=O)OCC)c1ccnc2ccc(OC)cc12 [QUININE ETHYL CARBONATE]	> 45.8 µM	> 45.8 µM
CC(C(=O)O)c1ccc(C2CCCCC2)c2ccccc12 (stereo not given) [Quadrisol]	> 45.8 µM	> 45.8 µM
